From ChEMBL document CHEMBL4831514, “Novel betulin dicarboxylic acid ester derivatives as potent antiviral agents: Design, synthesis, biological evaluation, structure-activity relationship and in-silico study” (Eur J Med Chem, 2021) come the findings set out here.

Broadly, the CC50 is the concentration giving 50% cytotoxicity. As usually defined, the EC50 is the concentration needed to bring the measured effect to its halfway point.

Molecules are shown by their SMILES. The source made the active and inactive calls. The rule behind the calls is not given here.

Data set [1] concerns Human adenovirus 5. Briefly: Antiviral activity against Human adenovirus 5 Adenoid 75 infected in A549 cells assessed as reduction in virus titer preincubated for 24 hrs followed by viral infection and measured after 72 hrs by microscopic analysis. It counts as functional, organism-based.
Data set [2] deals with Enterovirus E. Briefly: Potency index, ratio of ribavirin EC50 to test compound EC50 for antiviral activity against Enterovirus E LCR-4 infected in A549 cells assessed as reduction in virus titer treated 1 hr post viral infection followed by replacement with fresh medium with compounds and measured after 72 hrs by MTT assay. It counts as functional. For orientation: Tetrazolium assays rely on reduction of a dye to a coloured formazan, in cell work by metabolically active cells.

Data set [3] has as its system Enterovirus E. Briefly: Antiviral activity against Enterovirus E LCR-4 infected in A549 cells assessed as inhibition of viral adsorption at early stage of replication treated for 1 hr during viral infection followed by replacement with fresh medium and measured after 72 hrs by MTT assay. It counts as functional, organism-based.
Data set [4] concerns Human alphaherpesvirus 1. Briefly: Antiviral activity against Human herpesvirus 1 MacIntyre infected in A549 cells assessed as reduction in virus titer preincubated for 24 hrs followed by viral infection and measured after 72 hrs by microscopic analysis. The class given is functional, organism-based.
In data set [5] the test system is Human adenovirus 5. Briefly: Antiviral activity against Human adenovirus 5 Adenoid 75 infected in A549 cells assessed as inhibition of viral adsorption at early stage of replication treated for 1 hr during viral infection followed by replacement with fresh medium and measured after 72 hrs by MTT assay. It counts as functional, organism-based.
For the next data set, the system named is A549. Briefly: (§1) Cytotoxicity against human A549 cells assessed as reduction in cell viability incubated for 48 hrs by MTT assay. The class given is cell-based. The note with it: a549, 48 h.
The nature of data set [6]: as §1. It counts as cell-based. The note with it: A549 cells.
For a further data set, the system named is MDCK. Briefly: Cytotoxicity against MDCK cells assessed as reduction in cell viability incubated for 72 hrs by MTT assay. The note with it: dog, mdck, 72 h. The class given is cell-based, Canis lupus familiaris.
Data set [7] relates to Human alphaherpesvirus 1. Briefly: Antiviral activity against Human herpesvirus-1 MacIntyre infected in A549 cells assessed as inhibition of viral adsorption at early stage of replication treated for 1 hr during viral infection followed by replacement with fresh medium and measured after 48 hrs by MTT assay. The class given is functional, organism-based.
Data set [8] can be described thus: Selectivity index, ratio of CC50 for cytotoxicity against human A549 cells to EC50 for antiviral activity against Enterovirus E LCR-4 infected in A549 cells assessed as reduction in virus titer treated 1 hr post viral infection followed by replacement with fresh medium with compounds and measured after 72 hrs by MTT assay. It counts as toxicity, cell-based. The note with it: read-out: Selectivity Index.

The test system of data set [9] is Vesicular stomatitis virus. Briefly: Antiviral activity against Vesicular stomatitis virus Indiana infected in A549 cells assessed as reduction in virus titer preincubated for 24 hrs followed by viral infection and measured after 72 hrs by microscopic analysis. It counts as functional, organism-based.
The subject of data set [10] is Enterovirus E. Briefly: Antiviral activity against Enterovirus E LCR-4 infected in A549 cells assessed as reduction in virus titer treated 1 hr post viral infection followed by replacement with fresh medium with compounds and measured after 72 hrs by MTT assay. The class given is functional, organism-based. The following applies: LCR-4, A549.

On to `C=C(C)[C@@H]1CC[C@]2(COC(=O)CCCCCCCCCC(=O)O)CC[C@]3(C)[C@H](CC[C@@H]4[C@@]5(C)CC[C@H](O)C(C)(C)[C@@H]5CC[C@]43C)[C@@H]12`, for which the outcome (in the data set on Human adenovirus 5 [1]; with Enterovirus E [3]; in the data set with Human alphaherpesvirus 1 [4]; in the data set with Human adenovirus 5 [5]; in the data set on Human alphaherpesvirus 1 [7]; in data set [9]) was inactive. In the data set on Enterovirus E [2], the “Ratio EC50” value is on record as 10. Further, the CC20 with A549 amounted to 5.09 µM; in the data set with MDCK, 10.2 µM. Also, in data set [6], the CC50 at 48 h stood at 29.4 µM. In addition, the selectivity ratio at 72 h in data set [8] turned out to be 2.9. In the data set with Enterovirus E [10], the EC50 stood at 10.3 µM.
